± gives the expanded uncertainty stated by the source.
Tests used:
[1] = xn = mol fraction of the nth substance listed
[2] = refractive index (Na D-line) (dimensionless); xn = mol fraction of the nth substance listed; settings: 101 kPa, Liquid
[3] = refractive index (Na D-line) (dimensionless); settings: 101.33 kPa, Liquid

CCCS(=O)CCC [dipropyl sulfoxide] + O
Settings | refractive index, [2] | surface tension liquid-gas, [1] [mN/m]
298.15 K, x1 = 0.0105 | 1.344 ± 0.0015 | 52.3 ± 2.6
298.15 K, x1 = 0.01985 | 1.3516 ± 0.0015 | –
298.15 K, x1 = 0.0199 | – | 47.4 ± 2.4
298.15 K, x1 = 0.0469 | 1.374 ± 0.0016 | 42.2 ± 2.2
298.15 K, x1 = 0.0998 | 1.4009 ± 0.0016 | 39.6 ± 2.1
298.15 K, x1 = 0.2019 | 1.4305 ± 0.0016 | 37.5 ± 2
298.15 K, x1 = 0.2809 | 1.4395 ± 0.0015 | 37.2 ± 2
298.15 K, x1 = 0.3975 | 1.446 ± 0.0015 | 35.8 ± 2
298.15 K, x1 = 0.5001 | – | 35.4 ± 1.9
298.15 K, x1 = 0.5049 | 1.4502 ± 0.0015 | –
298.15 K, x1 = 0.6818 | 1.455 ± 0.0015 | 34.3 ± 1.9
298.15 K, x1 = 0.9002 | 1.458 ± 0.0016 | –
303.15 K, x1 = 0.0105 | 1.343 ± 0.0015 | 51.1 ± 2.5
303.15 K, x1 = 0.01985 | 1.351 ± 0.0015 | –
303.15 K, x1 = 0.0199 | – | 46.4 ± 2.3
303.15 K, x1 = 0.0469 | 1.3725 ± 0.0015 | 41.5 ± 2.2
303.15 K, x1 = 0.0998 | 1.399 ± 0.0015 | 38.9 ± 2.1
303.15 K, x1 = 0.2019 | 1.4285 ± 0.0016 | 37 ± 2
303.15 K, x1 = 0.2809 | 1.4375 ± 0.0016 | 36.5 ± 2
303.15 K, x1 = 0.3975 | 1.4455 ± 0.0015 | 35.2 ± 1.9
303.15 K, x1 = 0.5001 | – | 34.9 ± 1.9
303.15 K, x1 = 0.5049 | 1.4495 ± 0.0015 | –
303.15 K, x1 = 0.6818 | 1.454 ± 0.0015 | 34.2 ± 1.9
303.15 K, x1 = 0.9002 | 1.4555 ± 0.0016 | –
308.15 K, x1 = 0.0105 | 1.342 ± 0.0015 | 49.9 ± 2.5
308.15 K, x1 = 0.01985 | 1.3506 ± 0.0015 | –
308.15 K, x1 = 0.0199 | – | 45.3 ± 2.3
308.15 K, x1 = 0.0469 | 1.3711 ± 0.0017 | 40.7 ± 2.1
308.15 K, x1 = 0.0998 | 1.398 ± 0.002 | 38.1 ± 2
308.15 K, x1 = 0.2019 | 1.4245 ± 0.0022 | 36.5 ± 2
308.15 K, x1 = 0.2809 | 1.435 ± 0.0017 | 36 ± 2
308.15 K, x1 = 0.3975 | 1.4445 ± 0.0016 | 34.5 ± 1.9
308.15 K, x1 = 0.5001 | – | 34.3 ± 1.9
308.15 K, x1 = 0.5049 | 1.4486 ± 0.0016 | –
308.15 K, x1 = 0.6818 | 1.452 ± 0.0016 | 33.5 ± 1.9
308.15 K, x1 = 0.9002 | 1.454 ± 0.0015 | –
313.15 K, x1 = 0.0105 | – | 48.8 ± 2.4
313.15 K, x1 = 0.0199 | – | 44.4 ± 2.3
313.15 K, x1 = 0.0469 | – | 40 ± 2.1
313.15 K, x1 = 0.0998 | – | 37.3 ± 2
313.15 K, x1 = 0.2019 | – | 35.9 ± 2
313.15 K, x1 = 0.2809 | – | 35 ± 1.9
313.15 K, x1 = 0.3975 | – | 34.1 ± 1.9
313.15 K, x1 = 0.5001 | – | 33.8 ± 1.9
313.15 K, x1 = 0.6818 | – | 32.9 ± 1.8
318.15 K, x1 = 0.0105 | – | 47.6 ± 2.4
318.15 K, x1 = 0.0199 | – | 44.3 ± 2.3
318.15 K, x1 = 0.0469 | – | 39.3 ± 2.1
318.15 K, x1 = 0.0998 | – | 36.6 ± 2
318.15 K, x1 = 0.2019 | – | 35 ± 1.9
318.15 K, x1 = 0.2809 | – | 34.4 ± 1.9
318.15 K, x1 = 0.3975 | – | 33.4 ± 1.9
318.15 K, x1 = 0.5001 | – | 33.3 ± 1.9
318.15 K, x1 = 0.6818 | – | 32.2 ± 1.8
323.15 K, x1 = 0.0105 | – | 46.6 ± 2.4
323.15 K, x1 = 0.0199 | – | 43.2 ± 2.2
323.15 K, x1 = 0.0469 | – | 38.5 ± 2.1
323.15 K, x1 = 0.0998 | – | 35.7 ± 2
323.15 K, x1 = 0.2019 | – | 34.4 ± 1.9
323.15 K, x1 = 0.2809 | – | 33.8 ± 1.9
323.15 K, x1 = 0.3975 | – | 32.8 ± 1.8
323.15 K, x1 = 0.5001 | – | 32.7 ± 1.8
323.15 K, x1 = 0.6818 | – | 31.6 ± 1.8
328.15 K, x1 = 0.0105 | – | 45.6 ± 2.3
328.15 K, x1 = 0.0199 | – | 42.2 ± 2.2
328.15 K, x1 = 0.0469 | – | 37.8 ± 2
328.15 K, x1 = 0.0998 | – | 35 ± 1.9
328.15 K, x1 = 0.2019 | – | 33.7 ± 1.9
328.15 K, x1 = 0.2809 | – | 33.1 ± 1.9
328.15 K, x1 = 0.3975 | – | 32.2 ± 1.8
328.15 K, x1 = 0.5001 | – | 32.1 ± 1.8
328.15 K, x1 = 0.6818 | – | 30.8 ± 1.8

CC[S+]([O-])CC [diethyl sulfoxide] + O
Settings | refractive index, [2] | surface tension liquid-gas, [1] [mN/m]
298.15 K, x1 = 0.0099 | 1.3415 ± 0.0024 | 65.5 ± 3.1
298.15 K, x1 = 0.0207 | – | 62.5 ± 2.9
298.15 K, x1 = 0.0513 | 1.3735 ± 0.0016 | 55.4 ± 2.7
298.15 K, x1 = 0.1001 | 1.399 ± 0.0046 | 50.9 ± 2.5
298.15 K, x1 = 0.1999 | 1.43 ± 0.0016 | 46 ± 2.3
298.15 K, x1 = 0.2999 | 1.446 ± 0.0015 | 42.8 ± 2.2
298.15 K, x1 = 0.4091 | 1.457 ± 0.0016 | –
298.15 K, x1 = 0.4908 | – | 40.4 ± 2.1
298.15 K, x1 = 0.5189 | 1.458 ± 0.0016 | –
298.15 K, x1 = 0.5803 | 1.4605 ± 0.0016 | –
298.15 K, x1 = 0.7123 | 1.4645 ± 0.0015 | 37.6 ± 2
298.15 K, x1 = 0.7741 | 1.466 ± 0.0016 | –
303.15 K, x1 = 0.0099 | 1.332 ± 0.0018 | 64.8 ± 3
303.15 K, x1 = 0.0207 | – | 61.5 ± 2.9
303.15 K, x1 = 0.0513 | 1.3675 ± 0.0016 | 54.9 ± 2.7
303.15 K, x1 = 0.1001 | 1.373 ± 0.02 | 50.2 ± 2.5
303.15 K, x1 = 0.1999 | 1.428 ± 0.0016 | 45.2 ± 2.3
303.15 K, x1 = 0.2999 | 1.4445 ± 0.0015 | 42 ± 2.2
303.15 K, x1 = 0.4091 | 1.4555 ± 0.0016 | –
303.15 K, x1 = 0.4908 | – | 39.8 ± 2.1
303.15 K, x1 = 0.5189 | 1.457 ± 0.0015 | –
303.15 K, x1 = 0.5803 | 1.4585 ± 0.0016 | –
303.15 K, x1 = 0.7123 | 1.463 ± 0.0015 | 37.1 ± 2
303.15 K, x1 = 0.7741 | 1.464 ± 0.0016 | –
308.15 K, x1 = 0.0099 | 1.3315 ± 0.0015 | 64.1 ± 3
308.15 K, x1 = 0.0207 | – | 60.4 ± 2.9
308.15 K, x1 = 0.0513 | 1.3685 ± 0.0027 | 54 ± 2.6
308.15 K, x1 = 0.1001 | 1.372 ± 0.02 | 49.5 ± 2.5
308.15 K, x1 = 0.1999 | 1.4265 ± 0.0032 | 44.2 ± 2.3
308.15 K, x1 = 0.2999 | 1.443 ± 0.0017 | 41.9 ± 2.2
308.15 K, x1 = 0.4091 | 1.453 ± 0.0018 | –
308.15 K, x1 = 0.4908 | – | 39.3 ± 2.1
308.15 K, x1 = 0.5189 | 1.455 ± 0.0016 | –
308.15 K, x1 = 0.5803 | 1.4565 ± 0.0015 | –
308.15 K, x1 = 0.7123 | 1.4615 ± 0.0016 | 37 ± 2
308.15 K, x1 = 0.7741 | 1.462 ± 0.0016 | –
313.15 K, x1 = 0.0099 | – | 62.8 ± 3
313.15 K, x1 = 0.0207 | – | 59.3 ± 2.8
313.15 K, x1 = 0.0513 | – | 53.1 ± 2.6
313.15 K, x1 = 0.1001 | – | 48.4 ± 2.4
313.15 K, x1 = 0.1999 | – | 47.1 ± 2.4
313.15 K, x1 = 0.2999 | – | 44.3 ± 2.3
313.15 K, x1 = 0.4908 | – | 38.6 ± 2.1
313.15 K, x1 = 0.7123 | – | 36.5 ± 2
318.15 K, x1 = 0.0099 | – | 61.8 ± 2.9
318.15 K, x1 = 0.0207 | – | 58.4 ± 2.8
318.15 K, x1 = 0.0513 | – | 52.4 ± 2.6
318.15 K, x1 = 0.1001 | – | 47.7 ± 2.4
318.15 K, x1 = 0.1999 | – | 46.1 ± 2.3
318.15 K, x1 = 0.2999 | – | 43.2 ± 2.2
318.15 K, x1 = 0.4908 | – | 38 ± 2
318.15 K, x1 = 0.7123 | – | 35.7 ± 2
323.15 K, x1 = 0.0099 | – | 60.8 ± 2.9
323.15 K, x1 = 0.0207 | – | 56.8 ± 2.7
323.15 K, x1 = 0.0513 | – | 50.5 ± 2.5
323.15 K, x1 = 0.1001 | – | 46.5 ± 2.4
323.15 K, x1 = 0.1999 | – | 45.3 ± 2.3
323.15 K, x1 = 0.2999 | – | 41.6 ± 2.2
323.15 K, x1 = 0.4908 | – | 37.3 ± 2
323.15 K, x1 = 0.7123 | – | 35 ± 1.9
328.15 K, x1 = 0.0099 | – | 59.9 ± 2.9
328.15 K, x1 = 0.0207 | – | 56.4 ± 2.7
328.15 K, x1 = 0.0513 | – | 49.7 ± 2.5
328.15 K, x1 = 0.1001 | – | 45.7 ± 2.3
328.15 K, x1 = 0.1999 | – | 43.4 ± 2.2
328.15 K, x1 = 0.2999 | – | 40.7 ± 2.1
328.15 K, x1 = 0.4908 | – | 36.6 ± 2
328.15 K, x1 = 0.7123 | – | 34.4 ± 1.9

CC(C)S(=O)C(C)C [2,2'-sulfinylbispropane]
Settings | surface tension liquid-gas [mN/m]
298.15 K | 31.8 ± 1.8
303.15 K | 31.2 ± 1.8
308.15 K | 30.7 ± 1.8
313.15 K | 30.3 ± 1.7
318.15 K | 29.8 ± 1.7
323.15 K | 29.5 ± 1.7
328.15 K | 29.1 ± 1.7

[3]
Settings | refractive index
298.15 K | 1.4645 ± 0.0016
303.15 K | 1.462 ± 0.0016
308.15 K | 1.4595 ± 0.0016
